Square brackets hold non-standard residues; d marks the D form. Peptide text beside a SMILES is read from it. NMeDip = CN[C@H](C(=O)O)C(c1ccccc1)c1ccccc1; Dip = N[C@H](C(=O)O)C(c1ccccc1)c1ccccc1; NMeI = CC[C@H](C)[C@H](NC)C(=O)O
Target: Endothelin-1 receptor (Oryctolagus cuniculus)
Test: Inhibition of binding to Endothelin A receptor of rabbit renal vascular smooth muscle cells

CC[C@H](C)[C@H](NC(=O)[C@H](CC(=O)O)NC(=O)[C@H](CC(C)C)NC(=O)[C@H](C(c1ccccc1)c1ccccc1)N(C)C(C)=O)C(=O)N[C@H](C(=O)N[C@@H](Cc1c[nH]c2ccccc12)C(=O)O)[C@@H](C)CC (Ac-[NMeDip]LDIIW-OH)
IC50: 4.5 µM

CC[C@H](C)[C@H](NC(=O)[C@H]([C@@H](C)CC)N(C)C(=O)[C@H](CC(=O)O)NC(=O)[C@H](CC(C)C)NC(=O)[C@@H](NC(C)=O)C(c1ccccc1)c1ccccc1)C(=O)N[C@@H](Cc1c[nH]c2ccccc12)C(=O)O (Ac-[Dip]LD[NMeI]IW-OH)
IC50: 0.7 µM
